Values joined by “and” are separate entries in the source; they are usually repeats but may differ in a detail not shown here. Equal values may be shown once.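 Assay format: 96-well plates, 48-hour exposure. GI50: concentration for 50% inhibition of growth. TGI: concentration producing complete growth inhibition.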 Where a SMILES comes first, the peptide text is derived from it. [ ]: non-standard residue; d: D form. The star is where a group is joined. ξ: configuration not given here. NMeF = CN[C@@H](Cc1ccccc1)C(=O)O; NMeV = CN[C@H](C(=O)O)C(C)C; ξNMeN = CNC(CC(N)=O)C(=O)O; NMeA = CN[C@@H](C)C(=O)O; ξNMeV = CNC(C(=O)O)C(C)C; Boc = CC(C)(C)OC(=O)*
Legend:
Assay in all cases: DTP human tumour cell line panel, 48 h
[1] = test system: IGROV1 ovarian
[2] = test system: RPMI-8226 leukemia
[3] = test system: U251 CNS
[4] = test system: DLD-1 colon
[5] = test system: NCI-H460 lung
[6] = test system: SNB-75 CNS
[7] = test system: CAKI-1 renal
[8] = test system: HOP-62 NSCLC
[9] = test system: SF-539 CNS
[10] = test system: M14 melanoma
[11] = test system: K-562 leukemia
[12] = test system: UACC-257 melanoma
[13] = test system: SK-OV-3 ovarian
[14] = test system: MOLT-4 leukemia
[15] = test system: EKVX NSCLC
[16] = test system: MALME-3M melanoma
[17] = test system: NCI-H23 lung
[18] = test system: SN12C renal
[19] = test system: 786-0 renal
[20] = test system: RXF 393 renal
[21] = test system: LOX IMVI melanoma
[22] = test system: HCT-15 colon
[23] = test system: SK-MEL-28 melanoma
[24] = test system: HOP-18 NSCLC
[25] = test system: ACHN renal
[26] = test system: HCT-116 colon
[27] = test system: SW-620 colon
[28] = test system: DMS 273 small cell lung
[29] = test system: SF-268 CNS
[30] = test system: KM20L2 colon
[31] = test system: KM12 colon
[32] = test system: HT29 colon
[33] = test system: A498 renal
[34] = test system: TK-10 renal
[35] = test system: HL-60(TB) leukemia
[36] = test system: UO-31 renal
[37] = test system: SNB-19 CNS
[38] = test system: OVCAR-3 ovarian
[39] = test system: LXFL 529 NSCLC
[40] = test system: COLO 205 colon
[41] = test system: SK-MEL-5 melanoma
[42] = test system: SK-MEL-2 melanoma
[43] = test system: A549 NSCLC
[44] = test system: HOP-92 NSCLC
[45] = test system: OVCAR-4 ovarian
[46] = test system: OVCAR-8 ovarian
[47] = test system: M19-MEL melanoma
[48] = test system: XF 498 CNS
[49] = test system: OVCAR-5 ovarian
[50] = test system: HCC-2998 colon
[51] = test system: SF-295 CNS
[52] = test system: NCI-H226 lung
[53] = test system: UACC-62 melanoma
[54] = test system: T-47D breast
[55] = test system: PC-3 prostate
[56] = test system: NCI/ADR-RES ovarian
[57] = test system: CCRF-CEM leukemia
[58] = test system: BT-549 breast
[59] = test system: HS 578T breast
[60] = test system: SNB-78 CNS
[61] = test system: MDA-N
[62] = test system: SR leukemia
[63] = test system: DU-145 prostate
[64] = test system: MDA-MB-231 breast
[65] = test system: NCI-H522 lung
[66] = test system: MDA-MB-435
[67] = test system: MCF7 breast
[68] = test system: DMS 114 small cell lung

## COC1O[C@@H]2COC(C)(C)O[C@@H]2C(=O)N1Nc1ccc([N+](=O)[O-])cc1 (stereo not given in full)
[1]
  TGI: > 100 µM
[2]
  TGI: 45.4 µM
[3]
  TGI: > 100 µM
[4]
  TGI: > 100 µM
[5]
  TGI: > 100 µM
[6]
  TGI: > 100 µM
[7]
  TGI: > 100 µM
[8]
  TGI: > 100 µM
[9]
  TGI: > 100 µM
[10]
  TGI: > 100 µM
[11]
  TGI: > 100 µM
[12]
  TGI: > 100 µM
[13]
  TGI: > 100 µM
[14]
  TGI: > 100 µM
[15]
  TGI: > 100 µM
[16]
  TGI: > 100 µM
[17]
  TGI: > 100 µM
[18]
  TGI: > 100 µM
[19]
  TGI: > 100 µM
[20]
  TGI: > 100 µM
[21]
  TGI: 95.5 µM
[22]
  TGI: > 100 µM
[23]
  TGI: > 100 µM
[24]
  TGI: > 100 µM
[25]
  TGI: > 100 µM
[26]
  TGI: > 100 µM
[27]
  TGI: 72.9 µM
[28]
  TGI: > 100 µM
[29]
  TGI: > 100 µM
[30]
  TGI: > 100 µM
[31]
  TGI: > 100 µM
[32]
  TGI: > 100 µM
[33]
  TGI: > 100 µM
[34]
  TGI: > 100 µM
[35]
  TGI: > 100 µM
[36]
  TGI: > 100 µM
[37]
  TGI: > 100 µM
[38]
  TGI: > 100 µM
[39]
  TGI: > 100 µM
[40]
  TGI: > 100 µM
[41]
  TGI: > 100 µM
[42]
  TGI: > 100 µM
[43]
  TGI: > 100 µM
[44]
  TGI: > 100 µM
[45]
  TGI: > 100 µM
[46]
  TGI: > 100 µM
[47]
  TGI: > 100 µM
[48]
  TGI: > 100 µM
[49]
  TGI: > 100 µM
[50]
  TGI: > 100 µM
[51]
  TGI: > 100 µM
[52]
  TGI: > 100 µM
[53]
  TGI: > 100 µM

## O=C1C(c2ccc([N+](=O)[O-])cc2)=C(Cl)C(=O)c2c(O)cccc21
[1]
  TGI: 42.4 µM
[54]
  TGI: 52.6 µM
[2]
  TGI: > 100 µM
[55]
  TGI: 57.3 µM
[3]
  TGI: 32.6 µM
[4]
  TGI: 25.3 µM
[5]
  TGI: > 100 µM
[56]
  TGI: 66.2 µM
[6]
  TGI: 96.9 µM
[57]
  TGI: > 100 µM
[7]
  TGI: 50.2 µM
[8]
  TGI: > 100 µM
[9]
  TGI: 39.6 µM
[10]
  TGI: 46.5 µM
[11]
  TGI: > 100 µM
[58]
  TGI: 32.1 µM
[12]
  TGI: 32.9 µM
[59]
  TGI: 65.9 µM
[13]
  TGI: > 100 µM
[60]
  TGI: 63.8 µM
[14]
  TGI: > 100 µM
[15]
  TGI: 46.6 µM
[16]
  TGI: 34.8 µM
[17]
  TGI: 36.6 µM
[18]
  TGI: 39.9 µM
[19]
  TGI: 28.9 µM
[20]
  TGI: 29.1 µM
[21]
  TGI: 32.6 µM
[22]
  TGI: 54 µM
[23]
  TGI: 33.9 µM
[24]
  TGI: 19.6 µM
[61]
  TGI: 34.5 µM
[62]
  TGI: > 100 µM
[25]
  TGI: 33 µM
[26]
  TGI: > 56.6 µM
[27]
  TGI: 15.5 µM
[63]
  TGI: 42.7 µM
[28]
  TGI: > 100 µM
[29]
  TGI: 49.8 µM
[64]
  TGI: 31.8 µM
[31]
  TGI: > 62.6 µM
[32]
  TGI: 43.5 µM
[33]
  TGI: 59.3 µM
[34]
  TGI: 34.7 µM
[35]
  TGI: > 100 µM
[36]
  TGI: 19.1 µM
[37]
  TGI: 49.6 µM
[38]
  TGI: 32.6 µM
[39]
  TGI: 23.2 µM
[40]
  TGI: 32.4 µM
[41]
  TGI: > 54.8 µM
[42]
  TGI: 34.3 µM
[43]
  TGI: > 100 µM
[44]
  TGI: 33 µM
[45]
  TGI: 32.1 µM
[46]
  TGI: > 86.4 µM
[47]
  TGI: 36 µM
[48]
  TGI: 22.4 µM
[49]
  TGI: > 100 µM
[50]
  TGI: > 100 µM
[51]
  TGI: 98.9 µM
[65]
  TGI: 21.6 µM
[66]
  TGI: 31.9 µM
[52]
  TGI: > 59.3 µM
[67]
  TGI: 37.7 µM
[53]
  TGI: 35.6 µM

## COC(=O)[C@H](C)N(C)C(=O)C(CC(N)=O)N(C)C(=O)[C@H](Cc1ccccc1)N(C)C(=O)[C@@H]1CCCN1C(=O)[C@H](C(C)C)N(C)C(=O)C(C(C)C)N(C)C(=O)[C@@H](NC(=O)OC(C)(C)C)C(C)C (stereo not given in full) (Boc-V[ξNMeV][NMeV]P[NMeF][ξNMeN][NMeA]-OMe)
[1]
  GI50: 36.7 µM
  TGI: > 75 µM
[54]
  TGI: > 50 µM
[2]
  TGI: > 5 µM
[55]
  TGI: > 50 µM
[68]
  TGI: 55.6 µM
[3]
  GI50: 67.1 µM
  TGI: > 75 µM
[4]
  TGI: > 75 µM
[5]
  GI50: 25.4 µM
  TGI: > 75 µM
[56]
  TGI: > 50 µM
[6]
  TGI: > 75 µM
[57]
  GI50: 21.8 µM
  TGI: 39.3 µM and > 75 µM
[7]
  GI50: > 75 µM
  TGI: > 75 µM
[8]
  GI50: > 75 µM
  TGI: > 75 µM
[9]
  GI50: > 75 µM
  TGI: > 75 µM
[10]
  GI50: 31.6 µM
  TGI: > 75 µM
[11]
  GI50: 33.1 µM
  TGI: > 75 µM
[58]
  TGI: > 50 µM
[12]
  TGI: > 75 µM
[13]
  GI50: > 75 µM
  TGI: > 75 µM
[60]
  TGI: > 75 µM
[14]
  GI50: 17.1 µM
  TGI: 50 µM and 51.1 µM
[15]
  GI50: > 75 µM
  TGI: > 75 µM
[16]
  TGI: > 75 µM
[17]
  GI50: 35.6 µM
  TGI: > 75 µM
[18]
  TGI: > 75 µM
[19]
  GI50: > 75 µM
  TGI: > 75 µM
[20]
  TGI: 50 µM
[21]
  GI50: 26.7 µM
  TGI: > 75 µM
[22]
  TGI: > 75 µM
[23]
  GI50: 31.4 µM
  TGI: > 75 µM
[61]
  TGI: > 50 µM
[62]
  TGI: 62.4 µM
[25]
  GI50: > 75 µM
  TGI: > 75 µM
[26]
  GI50: 28 µM
  TGI: > 75 µM
[27]
  GI50: 34.7 µM
  TGI: > 75 µM
[63]
  TGI: > 50 µM
[28]
  TGI: > 75 µM
[29]
  TGI: > 75 µM
[64]
  TGI: > 50 µM
[30]
  TGI: > 75 µM
[31]
  TGI: 34 µM
[32]
  GI50: 27.2 µM
  TGI: > 75 µM
[33]
  GI50: 60.1 µM
  TGI: > 75 µM
[34]
  GI50: 59.2 µM
  TGI: > 75 µM
[35]
  GI50: 16.8 µM
  TGI: 35.9 µM and 36.3 µM
[36]
  GI50: 40.6 µM
  TGI: > 75 µM
[37]
  GI50: > 75 µM
  TGI: > 75 µM
[38]
  TGI: > 75 µM
[39]
  TGI: > 75 µM
[40]
  GI50: > 75 µM
  TGI: > 75 µM
[41]
  GI50: 35.2 µM
  TGI: > 75 µM
[42]
  GI50: 18 µM
  TGI: > 50 µM and 48.8 µM
[43]
  GI50: > 75 µM
  TGI: > 75 µM
[44]
  GI50: 17.2 µM
  TGI: 50 µM and 57.4 µM
[45]
  TGI: > 75 µM
[46]
  TGI: > 75 µM
[47]
  TGI: 50.9 µM
[48]
  TGI: > 75 µM
[49]
  GI50: > 75 µM
  TGI: > 75 µM
[50]
  GI50: 38.5 µM
  TGI: > 75 µM
[51]
  GI50: > 75 µM
  TGI: > 75 µM
[65]
  GI50: 34.8 µM
  TGI: > 75 µM
[66]
  TGI: > 50 µM
[52]
  TGI: > 75 µM
[67]
  TGI: > 50 µM
[53]
  GI50: 25.8 µM
  TGI: > 75 µM

— PubChem BioAssay (NCI)
